Entries after “also recorded” stand apart in the source; their conditions may differ.
Key:
[1] = compared to base cyclodextrins such as β-cyclodextrin; cited from earlier work
[2] = Diffusion-Ordered NMR Spectroscopy (DOSY): diffusion coefficient and residence time within cyclodextrin; type: physicochemical; settings: for residency time within 2-hydroxy-propyl-β-cyclodextrin: inferred from DOSY NMR diffusion, Formulations 1 and 2 and spiked ratios 1:4:1 / 1:4:1:1
Procedure: The interaction between cyclodextrin and menthol and cyclodextrin and nicotine (unprotonated and monoprotonated) was assessed using NMR spectroscopy. The study was conducted on formulations containing
Formulation 1-90.0% (w/w) water, 0.9% (w/w) 1-menthol, 9% (w/w) 2-hydroxy-propyl-β-cyclodextrin, and 0.1% (w/w) nicotine.
Formulation 2-89.9% (w/w) water, 0.9% (w/w) 1-menthol, 9% (w/w) 2-hydroxy-propyl-β-cyclodextrin, 0.1% (w/w) nicotine and 0.1% (w/w) citric acid.
During the NMR studies the assessment of the diffusion coefficient and subsequent residence times of monoprotonated nicotine, unprotonated nicotine, menthol within 2-hydroxy-propyl-β-cyclodextrin. The diffusion coefficient and subsequent residence times were studied as they are understood to provide a qualitative assessment of the degree of interaction of the compound with the complexing agent with each of the components studied. It is understood that encapsulation is not a static state but a dynamic one in which materials are encapsulated (e.g. complexed or bound to an encapsulating agent) for a period of time before release after which they may be subsequently encapsulated. Therefore, decreased residence time indicates decreased interaction with the complexing agent.
Diffusion-Ordered NMR Spectroscopy (DOSY) experiments were selected as suitable for assessment of diffusion times of nicotine and menthol solutions of individual constituents, in the formulation describe above and formulations with spike components to vary the ratios of constituents (nicotine: 2-hydroxy-propyl-β-cyclodextrin:menthol=1:4:1 and nicotine: 2-hydroxy-propyl-β-cyclodextrin:menthol:citric acid=1:4:1:1 molar ratios).

[3] = nicotinium citrate gel added in place of nicotine; no heating or filtration steps

## 2-hydroxy-propyl-β-cyclodextrin
[1]
  solubility in water: increased solubility in water

## CC1CCC(C(C)C)C(O)C1 (stereo not drawn) [menthol]
[2]
  residency time within 2-hydroxy-propyl-β-cyclodextrin: higher than that of nicotine in both its monoprotonated and unprotonated form; also recorded: mono-protonated nicotine<unprotonated nicotine<menthol

## CN1CCC[C@H]1c1cccnc1 [monoprotonated nicotine]
[2]; DOSY NMR, aqueous formulation with menthol and 2-hydroxy-propyl-β-cyclodextrin, with vs without citric acid
  diffusion coefficient: faster diffusion coefficient compared to the nicotine without citric acid
[2]; listed as mono-protonated nicotine
  residency time within 2-hydroxy-propyl-β-cyclodextrin: mono-protonated nicotine<unprotonated nicotine<menthol

## CN1CCCC1c1cccnc1.O=C(O)CC(O)(CC(=O)O)C(=O)O [nicotinium citrate]
[3]
  visual precipitate in formulation: lack of any visual precipitate

## CN1CCC[C@H]1c1cccnc1 [unprotonated nicotine]
[2]
  residency time within 2-hydroxy-propyl-β-cyclodextrin: higher residence within 2-hydroxy-propyl-β-cyclodextrin than mono-protonated nicotine; also recorded: mono-protonated nicotine<unprotonated nicotine<menthol

From patent US12478090B2, “Aerosolizable formulation” (NICOVENTURES TRADING LIMITED, priority 2018, dated 2025)
